The source of these data is ChEMBL document CHEMBL1201862, “PubChem BioAssay data set” (2004).

Molecules are shown by their SMILES.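 Following 48 hours of exposure in 96-well plates, responses at five concentrations were used to interpolate endpoints linearly. The concentration for 50% growth inhibition is given as GI50.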 Activity calls are given as the source filed them. Cut-off read from the data, not from the text of the source: active = GI50 up to about 1.1 µM and inactive = higher. A value given as a limit tells only on which side of the number the result lay.

Among the test systems are A549; CCRF-CEM; COLO 205; HCC 2998; HCT-116; HL-60; HT-29; IGROV-1; MOLT-4; Malme-3M; NCI-H23; SNB-75; TK-10; UO-31; HCT-15; SR.
Common to all, as to assay: NCI anticancer screen, dose series, 48 h

With `O=C(CC1Sc2ccccc2NC1=O)Nc1ccc([N+](=O)[O-])cc1[N+](=O)[O-]` (stereo not drawn), the GI50 was 26.5 µM (inactive) in the assay on A549; 15.6 µM (inactive) in the assay with CCRF-CEM; 26.7 µM (inactive) in the assay on COLO 205; 50.9 µM (inactive) with HCC 2998; 16 µM (inactive) in the assay on HCT-116; 17.8 µM (inactive) with HL-60. Besides, the GI50 with HT-29 was 17.7 µM (inactive); in the assay with IGROV-1, 17.4 µM (inactive); in the assay on MOLT-4, 20.1 µM (inactive); with Malme-3M, 19.8 µM (inactive); in the assay on NCI-H23, 13.1 µM (inactive); with SNB-75, 20 µM (inactive). Besides, the GI50 in the assay on TK-10 was 41.3 µM (inactive); in the assay on UO-31, 12 µM (inactive).

Regarding `COc1ccc2nc3cc(Cl)ccc3c(NC(C)CCCN(CCCl)CCCl)c2c1` (stereo not drawn), the GI50 is 0.474 µM (active) with A549; 0.0612 µM (active) in the assay with CCRF-CEM; 0.397 µM (active) with COLO 205; 1.35 µM (inactive) in the assay with HCC 2998; 0.199 µM (active) in the assay on HCT-116; 1.11 µM in the assay on HCT-15. For the same molecule, the GI50 in the assay on HL-60 was 0.12 µM (active); in the assay on HT-29, 0.272 µM (active); in the assay with IGROV-1, 0.317 µM (active); with MOLT-4, 0.054 µM (active); in the assay with Malme-3M it was 1.85 µM (inactive); in the assay with NCI-H23 it was 0.51 µM (active). Besides, the GI50 in the assay with SNB-75 was 1.42 µM (inactive); in the assay on SR, 0.0463 µM (active); in the assay with TK-10, 1.3 µM (inactive); in the assay with UO-31, 2.04 µM (inactive).

`Cc1nc2ccccn2c1/N=N/c1ccc(C(=O)NN)cc1`: the GI50 in the assay with A549 is 24.9 µM (inactive); in the assay with CCRF-CEM, 4.59 µM (inactive); with COLO 205 it was 51.2 µM (inactive); with HCC 2998, 75.7 µM (inactive); with HCT-15, 54.2 µM; with HL-60, 9.31 µM (inactive). In addition, the GI50 with HT-29 is 73.5 µM (inactive); in the assay on IGROV-1, 21.7 µM (inactive); in the assay on MOLT-4, 5.02 µM (inactive); with Malme-3M, > 100 µM (inactive); in the assay with NCI-H23, 28.9 µM (inactive); with TK-10, 23 µM (inactive). Further, the GI50 in the assay on UO-31 is 36.9 µM (inactive).

As for `C[S+]=c1sc2ccccc2s1`, the GI50 was > 100 µM (inactive) with A549; > 100 µM (inactive) in the assay with CCRF-CEM; > 100 µM (inactive) with COLO 205; > 100 µM (inactive) in the assay with HCC 2998; > 100 µM (inactive) in the assay with HCT-116; over 100 µM in the assay on HCT-15. Also, the GI50 in the assay with HL-60, in the assay with HT-29, in the assay with IGROV-1, in the assay on MOLT-4, with Malme-3M and in the assay on SNB-75 was > 100 µM (inactive) throughout. For the same molecule, the GI50 in the assay with SR, in the assay on TK-10 and with UO-31 was > 100 µM (inactive) in each case.

On to `COc1ccc(C(=O)C(C(=O)CC(=O)Nc2cccc(C(F)(F)F)c2)c2ccc(OC)cc2)cc1` (stereo not drawn), for which the GI50 in the assay with A549 is > 100 µM (inactive); in the assay on CCRF-CEM, > 100 µM (inactive); with COLO 205 it was > 100 µM (inactive); with HCC 2998 it was > 100 µM (inactive); in the assay with HCT-116, > 100 µM (inactive); in the assay on HCT-15, over 100 µM. Also, the GI50 in the assay on HL-60, in the assay on HT-29, in the assay with IGROV-1, in the assay on MOLT-4, in the assay on Malme-3M and with NCI-H23 was > 100 µM (inactive) each time. Besides, the GI50 is 30.8 µM (inactive) in the assay on SNB-75, > 100 µM (inactive) with SR and > 100 µM (inactive) in the assay on UO-31.

As for `COC(=O)C1CC2CC(=NNC(N)=O)CC2C1` (stereo not drawn), the GI50 in the assay with A549 is > 100 µM (inactive); in the assay on CCRF-CEM, > 100 µM (inactive); with COLO 205 it was > 100 µM (inactive); with HCC 2998, > 100 µM (inactive); with HCT-116, > 100 µM (inactive); with HCT-15, over 100 µM. Also, the GI50 in the assay with HL-60, in the assay on HT-29, in the assay with IGROV-1, in the assay on MOLT-4, with Malme-3M and in the assay with NCI-H23 was > 100 µM (inactive) throughout. For the same molecule, the GI50 in the assay on SNB-75, in the assay on TK-10 and in the assay with UO-31 was > 100 µM (inactive) each time.

Regarding `NC(=O)C(=O)Cc1nc2ccccc2s1`, the GI50 was > 100 µM (inactive) with A549; > 100 µM (inactive) with CCRF-CEM; > 100 µM (inactive) in the assay with COLO 205; > 100 µM (inactive) in the assay on HCC 2998; > 100 µM (inactive) in the assay with HCT-116; over 100 µM in the assay with HCT-15. For the same molecule, the GI50 with HL-60 was > 100 µM (inactive); in the assay on HT-29 it was > 100 µM (inactive); with MOLT-4 it was > 100 µM (inactive); in the assay on Malme-3M, > 100 µM (inactive); in the assay with NCI-H23, > 100 µM (inactive); in the assay on SNB-75, 68.2 µM (inactive). Also, the GI50 with TK-10 and in the assay on UO-31 was > 100 µM (inactive) each time.

On to `CC1=N/C(=C\c2cccc3ccccc23)C(=O)O1`, for which the GI50 is > 100 µM (inactive) in the assay with A549; > 100 µM (inactive) in the assay with CCRF-CEM; > 100 µM (inactive) in the assay on COLO 205; > 100 µM (inactive) in the assay with HCC 2998; > 100 µM (inactive) in the assay with HCT-116; over 100 µM in the assay with HCT-15. Moreover, the GI50 in the assay on HL-60, with HT-29, with IGROV-1, in the assay on MOLT-4, in the assay on Malme-3M and in the assay on NCI-H23 was > 100 µM (inactive) in each case. For the same molecule, the GI50 in the assay on TK-10 and in the assay on UO-31 was > 100 µM (inactive) in each case.

For the molecule `CN(C)C(=N)c1ccccc1`, the GI50 in the assay with A549, in the assay on COLO 205, in the assay with HCC 2998, in the assay on HCT-116, in the assay on HL-60 and with HT-29 was > 100 µM (inactive) each time. Also, the GI50 in the assay with Malme-3M, in the assay with NCI-H23, with SNB-75, with SR, in the assay with TK-10 and with UO-31 was > 100 µM (inactive) throughout.

Turning to `CCC12C=C(C(=O)OC)N3c4ccccc4C4CCN(CCC1)C2C43` (stereo not drawn), the GI50 in the assay on A549 is > 100 µM (inactive); with CCRF-CEM, > 100 µM (inactive); in the assay with COLO 205 it was 31.9 µM (inactive); in the assay on HCC 2998, 29.7 µM (inactive); in the assay with HCT-116, 68.7 µM (inactive); in the assay with HCT-15, 64.3 µM. Also, the GI50 with HL-60 is 78.9 µM (inactive); in the assay with HT-29, 32.1 µM (inactive); in the assay on IGROV-1 it was > 100 µM (inactive); with MOLT-4, 66.8 µM (inactive); in the assay on Malme-3M, 18.8 µM (inactive); with NCI-H23 it was 99.3 µM (inactive). Besides, the GI50 was 30.2 µM (inactive) in the assay with SNB-75, > 100 µM (inactive) in the assay with TK-10 and 77.3 µM (inactive) with UO-31.
